According to ChEMBL document CHEMBL5032530, “Discovery of Benzocyclic Sulfone Derivatives as Potent CXCR2 Antagonists for Cancer Immunotherapy” (J Med Chem, 2021):
One block for each compound: values may come before it. Activity calls are given as the source filed them. The rule behind the calls is not given here.

Assays:
[1] = Tmax in ICR mouse at 3 mg/kg, iv measured upto 48 hrs; type: ADME, organism-based; conditions: in vivo
[2] = AUC (0 to infinity) in ICR mouse at 3 mg/kg, iv measured upto 48 hrs; type: ADME, organism-based; parameters: route intravenous, dose 3 mg/kg, time <=48; conditions: in vivo
[3] = Apparent volume of distribution in ICR mouse at 30 mg/kg, po measured upto 48 hrs; type: ADME, organism-based; conditions: in vivo
[4] = AUC (0 to infinity) in ICR mouse at 30 mg/kg, po measured upto 48 hrs; type: ADME, organism-based; parameters: route oral, dose 30 mg/kg, time <=48; conditions: in vivo
[5] = Oral bioavailability in ICR mouse at 30 mg/kg measured upto 48 hrs; type: ADME, organism-based; conditions: in vivo
[6] = AUC (0 to t) in ICR mouse at 3 mg/kg, iv measured upto 48 hrs; type: ADME, organism-based; parameters: route intravenous, dose 3 mg/kg, time <=48; conditions: in vivo
[7] = Clearance in ICR mouse at 3 mg/kg, iv measured upto 48 hrs; type: ADME, organism-based; conditions: in vivo
[8] = Half life in ICR mouse at 3 mg/kg, iv measured upto 48 hrs; type: ADME, organism-based; conditions: in vivo
[9] = AUC (0 to t) in ICR mouse at 30 mg/kg, po measured upto 48 hrs; type: ADME, organism-based; parameters: route oral, dose 30 mg/kg, time <=48; conditions: in vivo
[10] = Cmax in ICR mouse at 3 mg/kg, iv measured upto 48 hrs; type: ADME, organism-based; parameters: route intravenous, dose 3 mg/kg, time <=48; conditions: in vivo
Neutrophil [11] = experiment: In vivo antagonist activity at CXCR2 in carrageenan-induced C57BL/6 mouse air pouch inflammation model assessed as reduction in neutrophil infiltration into air pouch at 10 mg/kg, po bid administered after 3 days of carrageenan treatment for 3 days; type: functional, organism-based; conditions: time 3.0 day
[12] = Apparent volume of distribution in ICR mouse at 3 mg/kg, iv measured upto 48 hrs; type: ADME, organism-based; conditions: in vivo, read-out: Vz
[13] = Tmax in ICR mouse at 30 mg/kg, po measured upto 48 hrs; type: ADME, organism-based; conditions: in vivo
[14] = Cmax in ICR mouse at 30 mg/kg, po measured upto 48 hrs; type: ADME, organism-based; parameters: route oral, dose 30 mg/kg, time <=48; conditions: in vivo
[15] = Clearance in ICR mouse at 30 mg/kg, po measured upto 48 hrs; type: ADME, organism-based; conditions: in vivo
[16] = biological target: T1, C-X-C chemokine receptor type 2 (Homo sapiens, UniProt P25025); experiment: Antagonist activity at human CXCR2 expressed in HEK293 cells assessed as inhibition of CXCL8-induced beta-arrestin recruitment preincubated for 30 mins followed by addition of agonist incubated for 90 mins by beta arrestin assay; type: functional, cell-based
T1 sequence (P25025 whole entry): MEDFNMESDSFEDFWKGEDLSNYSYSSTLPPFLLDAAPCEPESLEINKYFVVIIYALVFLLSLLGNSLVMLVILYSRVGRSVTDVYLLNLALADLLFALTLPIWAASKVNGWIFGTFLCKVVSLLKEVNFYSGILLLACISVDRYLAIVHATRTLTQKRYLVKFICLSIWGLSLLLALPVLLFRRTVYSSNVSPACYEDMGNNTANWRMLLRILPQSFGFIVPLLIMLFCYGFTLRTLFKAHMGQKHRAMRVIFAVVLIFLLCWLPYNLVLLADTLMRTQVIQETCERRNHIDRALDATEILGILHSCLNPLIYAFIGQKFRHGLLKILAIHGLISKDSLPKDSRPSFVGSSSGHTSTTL

[17] = Half life in ICR mouse at 30 mg/kg, po measured upto 48 hrs; type: ADME, organism-based; conditions: in vivo
Panc02 [18] = experiment: Antitumour activity against mouse Panc02 cells xenografted in mouse assessed as reduction in infiltration of neutrophils into tumor tissue at 30 mg/kg, po bid measured after 15 days by immunohistochemical analysis; type: functional, organism-based; conditions: time 15.0 day
Panc02 [19] = experiment: Antitumour activity against mouse Panc02 cells xenografted in mouse assessed as change in CD11b expressing immune cells infiltration into tumor tissue using LY6C antibody at 10 mg/kg, po bid measured after 15 days by flow cytometry analysis (reference value: 20.5%); type: functional; conditions: time 15 day
Neutrophil [20] = experiment: In vivo antagonist activity at CXCR2 in carrageenan-induced C57BL/6 mouse air pouch inflammation model assessed as reduction in neutrophil infiltration into air pouch at 30 mg/kg, po bid administered after 3 days of carrageenan treatment for 3 days; type: functional, organism-based; conditions: time 3.0 day
Panc02 [21] = experiment: Antitumour activity against mouse Panc02 cells xenografted in mouse assessed as change in CD45 expressing immune cells infiltration into tumor tissue at 3 mg/kg, po bid measured after 15 days by flow cytometry analysis (reference value: 27.4%); type: functional; conditions: time 15 day
PANC-1 = experiment: Cytotoxicity against human PanC-1 cells assessed as reduction in cell viability measured after 72 hrs by CCK8 assay; type: cell-based; conditions: PANC-1, 72 h
Panc02 [22] = experiment: Antitumour activity against mouse Panc02 cells xenografted in mouse assessed as upregulation of infiltration of CD3+ T cell into tumor tissue treated po twice a day measured after 15 days by immunohistochemical analysis; type: functional, organism-based; conditions: dose 10-30 mg/kg, time 15.0 day
Panc02 [23] = experiment: Antitumour activity against mouse Panc02 cells xenografted in mouse assessed as tumour growth inhibition at 10 mg/kg, po bid […]; type: functional; conditions: read-out: TGI
Panc02 [24] = experiment: Antitumour activity against mouse Panc02 cells xenografted in mouse assessed as change in CD45 expressing immune cells infiltration into tumor tissue at 10 mg/kg, po bid measured after 15 days by flow cytometry analysis (reference value: 2.3%); type: functional; conditions: time 15 day
Panc02 [25] = experiment: Antitumour activity against mouse Panc02 cells xenografted in mouse assessed as change in CD11b expressing immune cells infiltration into tumor tissue using LY6G antibody at 3 mg/kg, po bid measured after 15 days by flow cytometry analysis (reference value: 29.7%); type: functional; conditions: time 15 day
Mus musculus = experiment: Effect on granulocytic MDSCs level in mouse xenografted with […] cells at 10 to 30 mg/kg, po bid measured after 15 days by immunohistochemical analysis; type: ADME, organism-based; conditions: in vivo, 360 h, dose 10-30 mg/kg, time 15 day
[26] = Cytotoxicity against human PBMC cells assessed as reduction in cell viability measured after 72 hrs by CCK8 assay; type: cell-based
Panc02 [27] = experiment: Antitumour activity against mouse Panc02 cells xenografted in mouse assessed as change in Gr1 expressing immune cells infiltration into tumor tissue at 10 mg/kg, po bid measured after 15 days by flow cytometry analysis (reference value: 27.4%); type: functional; conditions: time 15 day
MIA PaCa-2 = experiment: Cytotoxicity against human MIA PaCa-2 cells assessed as reduction in cell viability measured after 72 hrs by CCK8 assay; type: cell-based; conditions: MIA PaCa-2, 72 h
SW1990 = experiment: Cytotoxicity against human SW1990 cells assessed as reduction in cell viability measured after 72 hrs by CCK8 assay; type: cell-based; conditions: SW1990, 72 h
BXPC-3 = experiment: Cytotoxicity against human BxPC3 cells assessed as reduction in cell viability measured after 72 hrs by CCK8 assay; type: cell-based; conditions: BXPC-3, 72 h
[28] = biological target: T1, C-X-C chemokine receptor type 2; experiment: Displacement of [I-125]-interleukin-8 against human recombinant CXCR2 expressed in CHO-K1 cells incubated for 60 mins by radio ligand binding assay; type: cell-based
Panc02 [29] = experiment: Antitumour activity against mouse Panc02 cells xenografted in mouse assessed as reduction in infiltration of neutrophils into tumor tissue at 3 mg/kg, po bid measured after 15 days by flow cytometry analysis; type: functional, organism-based; conditions: time 15.0 day
Panc02 [30] = experiment: Antitumour activity against mouse Panc02 cells xenografted in mouse assessed as change in CD45 expressing immune cells infiltration into tumor tissue at 3 mg/kg, po bid measured after 15 days by flow cytometry analysis (reference value: 2.3%); type: functional; conditions: time 15 day
Panc02 [31] = experiment: Antitumour activity against mouse Panc02 cells xenografted in mouse assessed as change in CD11b expressing immune cells infiltration into tumor tissue using LY6G antibody at 10 mg/kg, po bid measured after 15 days by flow cytometry analysis (reference value: 29.7%); type: functional; conditions: time 15 day
Panc02 [32] = experiment: Antitumour activity against mouse Panc02 cells xenografted in mouse assessed as reduction in infiltration of granulocytic MDSCs into tumor tissue at 3 mg/kg, po bid measured after 15 days by flow cytometry analysis; type: functional, organism-based; conditions: time 15.0 day
Panc02 [33] = experiment: Antitumour activity against mouse Panc02 cells xenografted in mouse assessed as change in CD11b expressing immune cells infiltration into tumor tissue using LY6C antibody at 3 mg/kg, po bid measured after 15 days by flow cytometry analysis (reference value: 20.5%); type: functional; conditions: time 15 day
Panc02 [34] = experiment: Antitumour activity against mouse Panc02 cells xenografted in mouse assessed as tumour growth inhibition at 3 mg/kg, po bid […]; type: functional; conditions: read-out: TGI
Panc02 [35] = experiment: Antitumour activity against mouse Panc02 cells xenografted in mouse assessed as reduction in infiltration of granulocytic MDSCs into tumor tissue at 30 mg/kg, po bid measured after 15 days by immunohistochemical analysis; type: functional, organism-based; conditions: time 15.0 day
Panc02 [36] = experiment: Cytotoxicity against mouse Panc02 cells assessed as reduction in cell viability measured after 72 hrs by CCK8 assay; type: cell-based; conditions: panc02, 72 h

Compound: NS(=O)(=O)c1c(Cl)ccc(NC(=O)Nc2cccc(Cl)c2Cl)c1O
Tmax [1]: 3.6 min
AUC(0-inf) [2]: 3160 ng·h/mL
Vz [3]: 14.09 L/kg
AUC ([4]; 48 h): 11072.08 ng·h/mL
bioavailability [5]: 35%
AUC(0-t) at 48 h [6]: 3160 ng·h/mL
clearance [7]: 16.3 mL/min/kg
half-life [8]: 3.6 h
AUC(0-t) at 48 h [9]: 11100 ng·h/mL
Cmax [10]: 8350 ng/mL
Activity (Neutrophil [11]): Active
Vd [12]: 5.07 L/kg
Tmax [13]: 0.3 h
Cmax [14]: 3810 ng/mL
CL ([15]; 30 mg/kg, 48 h): 453.5 mL/min/kg
IC50 [16]: 13 nM
t1/2 ([17]; 30 mg/kg, 48 h): 3.59 h

Compound: O=C(Nc1ccc2c(c1O)S(=O)(=O)CCC2)Nc1cccc(F)c1Cl
IC50 [16]: 43 nM

Compound: O=C(Nc1ccccc1Br)Nc1ccc2c(c1O)S(=O)(=O)CCC2
IC50 [16]: 140 nM

Compound: O=C(Nc1ccc(Br)cc1)Nc1ccc2c(c1O)S(=O)(=O)CC=C2
IC50 [16]: 1480 nM

Compound: O=C(Nc1ccc2c(c1O)S(=O)(=O)CC=C2)Nc1cccc(Cl)c1Cl
IC50 [16]: 130 nM

Compound: Cc1ccc(NC(=O)Nc2ccc3c(c2O)S(=O)(=O)CCC3)cc1
IC50 [16]: 1320 nM

Compound: O=c1c(Nc2ccc3c(c2O)S(=O)(=O)CCC3)c(Nc2cccc(Cl)c2Cl)c1=O
IC50 [16]: 9990 nM

Compound: O=c1c(Nc2ccc3c(c2O)S(=O)(=O)CC=C3)c(Nc2cccc(F)c2Cl)c1=O
IC50 [16]: 700 nM

Compound: O=C(Nc1ccc2c(c1O)S(=O)(=O)CCC2)Nc1cccc(Cl)c1Cl
IC50 [16]: 210 nM

Compound: O=C(Nc1ccccc1F)Nc1ccc2c(c1O)S(=O)(=O)CCC2
IC50 [16]: 1020 nM

Compound: Cc1c(Cl)cccc1NC(=O)Nc1ccc2c(c1O)S(=O)(=O)CC=C2
IC50 [16]: 1640 nM

Further compounds by falling IC50 [16], results first:

IC50 [16]: 2430 nM
Compound: Cc1c(Cl)cccc1NC(=O)Nc1ccc2c(c1O)S(=O)(=O)CCC2

IC50 [16]: 1050 nM
Compound: O=c1c(Nc2ccccc2Cl)c(Nc2ccc3c(c2O)S(=O)(=O)CCC3)c1=O

IC50 [16]: 400 nM
Compound: O=C(Nc1ccc2c(c1O)S(=O)(=O)CCC2=O)Nc1cccc(Cl)c1Cl

IC50 [16]: 78 nM
Compound: O=c1c(Nc2ccccc2Br)c(Nc2ccc3c(c2O)S(=O)(=O)CC=C3)c1=O

IC50 [16]: 66 nM
Compound: O=C(Nc1ccccc1Cl)Nc1ccc2c(c1O)S(=O)(=O)CC=C2

Tmax [1]: 3 min
AUC(0-inf) [2]: 1550 ng·h/mL
Vz [3]: 47.39 L/kg
AUC(0-inf) ([4]; ICR): 3570 ng·h/mL
bioavailability [5]: 23.2%
AUC(0-t) at 48 h [6]: 1510 ng·h/mL
clearance [7]: 32.8 mL/min/kg
Ki [28]: 440 nM
half-life [8]: 3.39 h
AUC(0-t) at 48 h [9]: 3510 ng·h/mL
Cmax [10]: 5120 ng/mL
Vd [12]: 9.82 L/kg
Tmax [13]: 3.42 h
Cmax [14]: 419 ng/mL
CL/F ([15]; ICR): 143 mL/min/kg
IC50 [16]: 34 nM
half-life ([17]; ICR): 3.83 h
Compound: Cc1c(F)cccc1NC(=O)Nc1ccc2c(c1O)S(=O)(=O)CC=C2
Activity (Panc02 [18]): Active
Activity (Panc02 [19]): 17.8%
Activity (Neutrophil [20]): Active
Activity (Panc02 [21]): 12.7%
IC50 (PANC-1): > 10000 nM
Activity (Panc02 [22]): Dose-Dependent Effect
inhibition in vivo at 10 mg/kg (Panc02 [23]): 66.7%
Activity (Panc02 [24]): 40.2%
Activity (Panc02 [25]): 15.8%
Activity (Mus musculus): Non-Toxic
IC50 [26]: > 10000 nM
Activity (Panc02 [27]): 7.6%
IC50 (MIA PaCa-2): > 10000 nM
IC50 (SW1990): > 10000 nM
IC50 (BXPC-3): > 10000 nM
Activity (Panc02 [29]): Active
Activity (Panc02 [30]): 34.9%
Activity (Panc02 [31]): 8.11%
Activity (Panc02 [32]): Active
Activity (Panc02 [33]): 15%
inhibition in vivo at 3 mg/kg (Panc02 [34]): 58.2%
Activity (Panc02 [35]): Active
Activity (Panc02 [36]): Non-Toxic
